Columns and labels:
[1] = Permeation in Caco-2 cells; format: in vitro ADME; details: human, Caco-2, 2 μM, 37° C., apical to basolateral
Experimental: Permeation of (11β,17β)-17-hydroxy-11-[4-(methylsulphonyl)phenyl]-17-(pentafluoroethyl)estra-4,9-dien-3-one in Caco-2 Cells
For the permeation studies, Caco-2 cells with a cell count of 300000 cells/ml were cultivated on Transwell Clear filter inserts (polyester; pore size 0.4 μm) in 12-well cell culture plates for at least 14 days in cell culture medium (1.5 ml) at 37° C., 5% CO2 and 95% air humidity. Before the test, to verify the “compactness” of the cell monolayer, the transepithelial resistance (TEER value) was determined, which must be greater than 300 Ωcm^2. Then the cell culture medium was replaced with hot transport buffer (0.5 ml apical, 1.5 ml basolateral) and the cells were equilibrated in it for 5 min. The permeability test was performed in duplicate at a substance concentration of 2 μM. At the start of the experiment, 100 μl (Ap0 min) was taken from the apical compartment and 100 μl of ice-cold stopping solution was added to it immediately. […] After further dilution of the samples with 4 times the volume of stopping solution/transport buffer (1+1) they were sedimented overnight at −20° C. and the supernatant was analysed by LCMS/MS. The Papp value of the substances was calculated from the following formula. […]

[2] = test system: rodents and non-rodents; details: in vivo
[3] = Chemical stability against temperature, light and oxidative stress; format: physicochemical; details: compared with the analogue with an alkanoyl or hydroxyalkanoyl group
[4] = Metabolic stability in human liver microsomes (HLM); format: in vitro ADME; details: HLM 0.5 mg/ml protein, 1 μM, 37° C., pH 7.4; well-stirred model, phase I reactions
Experimental: Metabolic Stability of (11β,17β)-17-hydroxy-11-[4-(methylsulphonyl)phenyl]-17-(pentafluoroethyl)estra-4,9-dien-3-one and (11β,17β)-17-hydroxy-11-[4′-(methylsulphonyl)-biphenyl-4-4-yl]-17-(pentafluoroethyl)estra-4,9-dien-3-one in Human Liver Microsomes (HLM)
Isolated human liver microsomes (HLM) were used for assessing the metabolic stability of compounds of general formula I.
Incubations were carried out with 2.4 ml of HLM solution (0.5 mg/ml protein content), 30 μl of the test compound (final concentration 1 μM) and 0.6 ml of the cofactor mixture (=NADPH-generating system of 3 IU glucose-6-phosphate dehydrogenase, 14.6 mg glucose-6-phosphate, 1.2 mg NADP) at 37° C. in 100 mM phosphate buffer at pH 7.4. Samples are taken at 6 time points (2-60 min), precipitated with an equal volume of methanol and the recovery of the test substances used in the supernatant is determined by LC-MS/MS analysis. The intrinsic clearance of the substance in the liver microsome preparation can be calculated from the half-life found for the breakdown of the substance. Based on this, together with various physiological characteristics according to the well-stirred model, it is then possible to predict a (metabolic) in vivo clearance with respect to phase I reactions. […]

[5] = test system: cardiovascular system; test: Action on the cardiovascular system (incl. ECG) of anaesthetized beagle dogs; format: in vivo; details: anaesthetized female beagle dogs, i.v. 0.1; 0.33 and 1 mg/kg, in comparison with the control
Experimental: Investigation of the Action on the Cardiovascular System (Incl. ECG) of Anaesthetized Beagle Dogs
(11β,17β)-17-Hydroxy-11-[4-(methylsulphonyl)phenyl]-17-(pentafluoroethyl)estra-4,9-dien-3-one, dissolved in a mixture of PEG 400 and HP-β-CD (60% PEG 400, 40% HP-β-CD 30%), was administered intravenously to anaesthetized female beagle dogs. The body weight of the dogs was >9 kg. 3 dogs were treated per group and additionally 3 dogs in the control group. 0.1; 0.33 and 1 mg/kg of the substance was administered in 3 consecutive infusions, in each case over a period of 30 minutes. The maximum amount of vehicle was 0.4 ml per kg for 30 minutes. Blood samples were taken from the animals at various time points. The highest plasma level (average for all 3 animals) was 1650 ng/ml at the end of the third infusion.

SMILES: C[C@]12C[C@H](c3ccc(S(C)(=O)=O)cc3)C3=C4CCC(=O)C=C4CC[C@H]3[C@@H]1CC[C@@]2(O)C(F)(F)C(F)(F)F [Example 4, (11β,17β)-17-Hydroxy-11-[4-(methylsulphonyl)phenyl]-17-(pentafluoroethyl)estra-4,9-dien-3-one]
- Papp A→B at 90 min, 2 μM [1]: 10.4 ×10⁻⁶ cm/s
- Safety profile (in acute and chronic tests) [2]: especially favourable safety profile
- Oxidation sensitivity [3]: surprisingly low oxidation sensitivity
- Stability under the influence of UV light [3]: surprisingly high stability
- Stability under thermal load [3]: surprisingly high stability
- (metabolic) in vivo clearance in humans predicted [4]: 1.7 mL/min/kg
- Effects on the cardiovascular system (pulmonary artery pressure, systemic arterial blood pressure, heart rate, ECG) [5]: no biologically relevant effects on the cardiovascular system

Reference: patent publication US8278469B2, “17-hydroxy-17-pentafluoroethyl-estra-4,9(10)-dien-11-aryl derivatives, method of production thereof and use thereof for the treatment of diseases” (Bayer Pharma Aktiengesellschaft, priority 2009, dated 2012)
